According to patent publication US6048872A, “Arylethanolamine derivatives and their use as agonists of atypical beta-adrenoceptors” (Glaxo Wellcome Inc., priority 1995, dated 2000):
Where a name gives a salt, the structure may show the parent alone.

Assays:
[1] = target: T1, human beta-3-adrenoceptor (Homo sapiens, UniProt P13945); assay: cAMP accumulation in CHO cells transfected with the human beta-3-adrenoceptor (Method 1), potency relative to isoprenaline; type: cell-based; conditions: relative potency of test agonist compared to isoprenaline (EC50 ratio), H β3 CHO cells
T1 construct: whole-cell cAMP accumulation, potency relative to isoprenaline
Method: […] The cell lines may also be transfected with human beta-1- and beta-2- adrenoceptor in a similar manner to provide a method of determining the selectivity of the compounds of the invention at the three receptors.
General cell culture guidelines are observed (Fershney, R. A. (1987) Culture of animal cells: A manual of basic technique. Wiley-Liss, Inc., N.Y.). A standard cell culture incubator is used (37° C., 5% CO2 in air, 95% relative humidity). H β3 CHO cells are grown in 75 ml flasks in MEMα medium containing 9% FCS & 125 μg/ml G418. One confluent flask of cells is trypsinised and resuspended in 80 ml of culture medium; 1 ml of the cell suspension is added to each well of three 24-well plates. The plates are then incubated for 1 day.
The medium is aspirated from each well, and the well rinsed with phosphate-buffered saline (PBS, this is then aspirated). 1 ml of MEMα (no FCS or G418, 300μ M IBMX) is added to each well. Antagonists, if required, are added at this stage. The plate is then placed back in the incubator for 30 min. Drugs are then added to the wells (10 μl, 100x required final concentration), the plate gently swirled to mix the drugs, and the plate placed back in the incubator for 30 min. The medium is then aspirated from each well, the well rinsed with PBS, and 0.5 ml perchloric acid (6% v/v in distilled water, 2-5° C.). The plate is left on ice for 30 min. The perchloric acid (containing cAMP) is transferred to a clean 24-well plate and the acid neutralised by addition of saturated KHCO3 solution (200 μl) to each well. The plate is then swirled and frozen (-20° C.) until cAMP is assayed. cAMP is assayed using an enzyme-immunoassay kit (Amersham).
The relative potency of each test agonist (EPMR) is compared to isoprenaline as follows: [formula] wherein EC50 is the molar concentration of agonist which produces 50% of the maximum possible response for that agonist.

[2] = system: indomethacin-induced antral damage; assay: Protective effect on indomethacin-induced gastric antral lesions in the re-fed rat (Method 2); type: in vivo; conditions: po, rats dosed orally 30 minutes before indomethacin 60 mg/kg s.c., antral damage assessed at 6 hours post dose
Method: […] The procedure is based upon that described by H. Satoh et. al., Gastroenterology, 81, 719-725 (1981) in which the effect of compounds on indomethacin-induced gastric antral lesions in the re-fed rat is investigated. Indomethacin is an example of the class of compound known as non-steroidal anti-inflammatory drugs (NSAIDs), the use of which is frequently associated with gastrointestinal ulcers.
Food (but not water) is withheld from female random hooded rats (70-120 g) for 24 hours and then the rats are re-fed with Rat and Mouse No. 1 Maintenance Diet. After 1 hour of access to food, the rats are dosed orally with either the test compound or solvent (0.5% w/v methyl cellulose in water). […]
The rat's stomach is removed (with a small amount of duodenum attached), opened along the greater curvature and the contents removed by washing with 0.9% w/v sodium chloride solution (saline). The opened stomach is pinned out (mucosal surface uppermost) on a polystyrene mat and the area of damage assessed by placing a grid (composed of 1 mm squares) over the antral region. […] The total area of antral damage is then expressed as a percentage of the total surface area of the antrum.
The protective effect of the test compound on indomethacin-induced antral damage is calculated as a percentage using the following equation: [formula]

T1 sequence (P13945 whole entry): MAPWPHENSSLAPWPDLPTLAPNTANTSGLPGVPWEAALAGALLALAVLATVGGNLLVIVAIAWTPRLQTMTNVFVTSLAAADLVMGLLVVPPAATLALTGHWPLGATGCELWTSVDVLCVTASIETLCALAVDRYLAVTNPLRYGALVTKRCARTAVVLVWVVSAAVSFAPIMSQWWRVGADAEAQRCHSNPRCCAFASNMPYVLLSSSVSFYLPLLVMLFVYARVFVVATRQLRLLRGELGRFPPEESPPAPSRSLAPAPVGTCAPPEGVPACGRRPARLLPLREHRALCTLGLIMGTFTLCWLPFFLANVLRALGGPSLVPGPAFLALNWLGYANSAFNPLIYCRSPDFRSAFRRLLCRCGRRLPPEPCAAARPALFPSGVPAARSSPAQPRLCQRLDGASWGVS

Compound | EPMR [1] | ED50 [2]
C[C@H](CNc1ccc(CC(=O)O)c(F)c1F)NC[C@H](O)c1cccc(Cl)c1 [Example 7, (4-{2R-[2-(3-Chloro-phenyl)-2R-hydroxyl-ethylamino]-propylamino}-2,3-difluoro-phenyl)-acetic acid] | 0.2 | 3 µg/kg
COc1cc(NC[C@@H](C)NC[C@H](O)c2cccc(Cl)c2)c(Cl)cc1CC(=O)O [Example 8, (5-Chloro-4-{2R-[2-(3-chloro-phenyl)-2R-hydroxy-ethylaminol-propylamino}-2-methoxy-phenyl)-acetic acid dihydrochloride] | 0.4 | 
C[C@H](CNc1cc(F)c(OCC(=O)O)c(F)c1)NC[C@H](O)c1cccc(Cl)c1 [Example 15, (4-{2R-[2-(3-Chloro-phenyl)-2R-hydroxy-ethylamino]-propylamino}-2,6-difluoro-phenoxy)-acetic acid] | 6.0 | 
